Measurements from patent publication US11993599B2, “Therapeutic compounds” (Genentech, Inc., priority 2021, dated 2024).

Tests used:
Format in all cases: cell-based
BRM [1] = target: T1, BRM (Homo sapiens, UniProt P51531); test: HiBIT nanoluciferase complementation screen for BRM degraders; settings: 18 hours, BRM-HiBIT KI Hela cells, luminescence normalized: DMSO only = 0%, no cells = −100%; for Median HiBiT activity 1 μM: compound 1 μM; for Median HiBiT activity 10 μM: compound 10 μM
Excerpt: Example B-1: HiBIT Nanoluciferase Complementation Screen for BRM Degraders
To assess BRM degradation, compounds were screened for their effect of BRM levels using the HiBIT nanoluciferase complementation strategy developed at Promega. In brief, a HELA cell line that was genetically modified via CRISPR/CAS9 was used to fuse the HiBIT sequence at the 3′ end of BRM (BRM-HiBIT KI Hela). BRM protein levels were then detected using the Nano-Glo HiBIT lytic detection reagent (Promega).
The screened compounds were plated into a white 384-well plate at 10 μM and 1 μM in 25 nL DMSO using an Echo dispenser (Labcyte). BRM-HiBIT KI Hela cells were seeded in the compound plate at 5000 cell per well at 25 μl in DMEM growth media (containing 10% FBS, 1% Glutamax (GIBCO cat #31053-028), lx Penicillin-Streptomycin (ROCHE, cat #1107444001), 4.5 g/L D-Glucose, and no phenol red). After incubation with compounds for 18 hours at 37° C., cell viability was assessed by the addition of 5 μl Cell Titer-Fluor reagent (Promega). After 30 s of mixing on an orbital shaker, and 30 minutes incubation at 37° C., fluorescence was measured with an INFINITE F500 (Tecan) (380-400 nm excitation, 505 nm emission). Next, to assess BRM HiBIT levels, 30 μl of Nano-Glo HiBIT lytic detection reagent (Promega) containing 1:50 Nano-Glo HiBIT lytic substrate and 1:100 LgBIT protein per ml of lytic buffer was added. After shaking on an orbital shaker at 350 rpm for 10 minutes, luminescence was measured on the INFINITE F500 (Tecan). To assess compound effects, luminescence signal was normalized with the mean of wells treated with DMSO only set to 0% and the mean of wells containing no cells set to −100%. Note that, in Table 4, the “Compound Number” corresponds to that used in Table 1.

BRG1 = target: T2, BRG1 (Homo sapiens, UniProt P51532); test: Immunofluorescence assay for BRG1 degradation in SW1573 cells; settings: 20 hours incubation; for DC50: immunofluorescence mean nuclear signal, read-out: BRG1 IF Degradation IC50; for Dmax: SW1573, 20 h, normalized to a known degrader control, read-out: BRG1 IF Degradation Sinf (%)
T2 construct: either BRM primary antibody (Cell signaling Cat #11966) or BRG primary antibody (Abcam, ab 110641); endogenous in cells; host or cells: SW1573
T2 sequence (P51532 whole entry): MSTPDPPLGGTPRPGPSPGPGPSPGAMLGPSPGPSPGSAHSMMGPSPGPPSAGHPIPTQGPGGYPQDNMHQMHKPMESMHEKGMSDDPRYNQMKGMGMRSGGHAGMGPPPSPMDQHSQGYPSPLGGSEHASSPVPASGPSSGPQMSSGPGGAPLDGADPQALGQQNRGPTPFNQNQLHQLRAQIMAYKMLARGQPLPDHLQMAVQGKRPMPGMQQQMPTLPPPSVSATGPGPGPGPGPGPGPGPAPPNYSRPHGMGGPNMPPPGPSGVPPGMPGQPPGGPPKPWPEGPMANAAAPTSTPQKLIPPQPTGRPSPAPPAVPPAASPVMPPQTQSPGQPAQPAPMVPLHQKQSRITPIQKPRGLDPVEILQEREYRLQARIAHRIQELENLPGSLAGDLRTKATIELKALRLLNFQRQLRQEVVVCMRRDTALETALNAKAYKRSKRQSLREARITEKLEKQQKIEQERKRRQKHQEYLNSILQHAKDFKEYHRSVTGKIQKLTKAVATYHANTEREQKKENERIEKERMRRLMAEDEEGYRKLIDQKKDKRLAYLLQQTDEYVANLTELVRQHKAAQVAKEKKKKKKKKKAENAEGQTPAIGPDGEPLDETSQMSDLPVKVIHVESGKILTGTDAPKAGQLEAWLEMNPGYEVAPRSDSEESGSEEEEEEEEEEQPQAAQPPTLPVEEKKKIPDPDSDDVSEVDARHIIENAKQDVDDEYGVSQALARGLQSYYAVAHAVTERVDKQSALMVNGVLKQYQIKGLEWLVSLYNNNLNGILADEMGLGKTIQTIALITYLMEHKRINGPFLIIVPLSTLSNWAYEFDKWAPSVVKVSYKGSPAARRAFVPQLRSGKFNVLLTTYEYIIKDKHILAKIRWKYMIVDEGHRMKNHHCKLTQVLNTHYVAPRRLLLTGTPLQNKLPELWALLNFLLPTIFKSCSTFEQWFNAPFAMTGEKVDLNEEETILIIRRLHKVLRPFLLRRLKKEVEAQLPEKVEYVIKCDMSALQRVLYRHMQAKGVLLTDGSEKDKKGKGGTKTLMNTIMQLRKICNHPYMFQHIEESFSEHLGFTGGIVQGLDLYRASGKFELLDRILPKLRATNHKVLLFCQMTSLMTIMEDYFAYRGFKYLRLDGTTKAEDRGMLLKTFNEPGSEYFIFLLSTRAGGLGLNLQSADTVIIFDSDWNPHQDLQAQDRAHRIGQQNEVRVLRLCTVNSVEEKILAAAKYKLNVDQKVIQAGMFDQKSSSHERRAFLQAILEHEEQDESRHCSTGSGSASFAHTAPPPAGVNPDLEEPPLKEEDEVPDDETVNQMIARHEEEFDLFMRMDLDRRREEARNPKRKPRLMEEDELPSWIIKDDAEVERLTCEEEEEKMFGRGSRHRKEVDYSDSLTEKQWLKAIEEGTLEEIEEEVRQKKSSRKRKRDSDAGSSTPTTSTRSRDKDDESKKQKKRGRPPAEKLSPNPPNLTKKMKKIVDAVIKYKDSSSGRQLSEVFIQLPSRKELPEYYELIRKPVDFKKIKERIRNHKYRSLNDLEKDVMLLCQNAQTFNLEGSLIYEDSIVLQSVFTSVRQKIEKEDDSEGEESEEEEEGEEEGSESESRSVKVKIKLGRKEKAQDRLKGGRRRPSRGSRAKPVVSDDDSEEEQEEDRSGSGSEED
Method in brief: (§1)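 Imaging-based readout in SW1573: 20 h dosing, formaldehyde fixation, antibody staining for either remodeler, nuclear intensity per cell quantified. Values normalized to control degrader; floating-maximum fit.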

BRM [2] = target: T1, BRM; test: Immunofluorescence assay for BRM degradation in SW1573 cells; design: treated overnight at 4° C. with either BRM primary antibody (Cell signaling Cat #11966) or BRG primary antibody; endogenous in cells; host or cells: SW1573; settings: 20 hours incubation; for DC50: immunofluorescence mean nuclear signal, read-out: BRM IF Degradation IC50; for BRM IF Degradation Sinf (%): normalized to a known degrader control
Method in brief: as §1

T1 sequence (P51531 whole entry): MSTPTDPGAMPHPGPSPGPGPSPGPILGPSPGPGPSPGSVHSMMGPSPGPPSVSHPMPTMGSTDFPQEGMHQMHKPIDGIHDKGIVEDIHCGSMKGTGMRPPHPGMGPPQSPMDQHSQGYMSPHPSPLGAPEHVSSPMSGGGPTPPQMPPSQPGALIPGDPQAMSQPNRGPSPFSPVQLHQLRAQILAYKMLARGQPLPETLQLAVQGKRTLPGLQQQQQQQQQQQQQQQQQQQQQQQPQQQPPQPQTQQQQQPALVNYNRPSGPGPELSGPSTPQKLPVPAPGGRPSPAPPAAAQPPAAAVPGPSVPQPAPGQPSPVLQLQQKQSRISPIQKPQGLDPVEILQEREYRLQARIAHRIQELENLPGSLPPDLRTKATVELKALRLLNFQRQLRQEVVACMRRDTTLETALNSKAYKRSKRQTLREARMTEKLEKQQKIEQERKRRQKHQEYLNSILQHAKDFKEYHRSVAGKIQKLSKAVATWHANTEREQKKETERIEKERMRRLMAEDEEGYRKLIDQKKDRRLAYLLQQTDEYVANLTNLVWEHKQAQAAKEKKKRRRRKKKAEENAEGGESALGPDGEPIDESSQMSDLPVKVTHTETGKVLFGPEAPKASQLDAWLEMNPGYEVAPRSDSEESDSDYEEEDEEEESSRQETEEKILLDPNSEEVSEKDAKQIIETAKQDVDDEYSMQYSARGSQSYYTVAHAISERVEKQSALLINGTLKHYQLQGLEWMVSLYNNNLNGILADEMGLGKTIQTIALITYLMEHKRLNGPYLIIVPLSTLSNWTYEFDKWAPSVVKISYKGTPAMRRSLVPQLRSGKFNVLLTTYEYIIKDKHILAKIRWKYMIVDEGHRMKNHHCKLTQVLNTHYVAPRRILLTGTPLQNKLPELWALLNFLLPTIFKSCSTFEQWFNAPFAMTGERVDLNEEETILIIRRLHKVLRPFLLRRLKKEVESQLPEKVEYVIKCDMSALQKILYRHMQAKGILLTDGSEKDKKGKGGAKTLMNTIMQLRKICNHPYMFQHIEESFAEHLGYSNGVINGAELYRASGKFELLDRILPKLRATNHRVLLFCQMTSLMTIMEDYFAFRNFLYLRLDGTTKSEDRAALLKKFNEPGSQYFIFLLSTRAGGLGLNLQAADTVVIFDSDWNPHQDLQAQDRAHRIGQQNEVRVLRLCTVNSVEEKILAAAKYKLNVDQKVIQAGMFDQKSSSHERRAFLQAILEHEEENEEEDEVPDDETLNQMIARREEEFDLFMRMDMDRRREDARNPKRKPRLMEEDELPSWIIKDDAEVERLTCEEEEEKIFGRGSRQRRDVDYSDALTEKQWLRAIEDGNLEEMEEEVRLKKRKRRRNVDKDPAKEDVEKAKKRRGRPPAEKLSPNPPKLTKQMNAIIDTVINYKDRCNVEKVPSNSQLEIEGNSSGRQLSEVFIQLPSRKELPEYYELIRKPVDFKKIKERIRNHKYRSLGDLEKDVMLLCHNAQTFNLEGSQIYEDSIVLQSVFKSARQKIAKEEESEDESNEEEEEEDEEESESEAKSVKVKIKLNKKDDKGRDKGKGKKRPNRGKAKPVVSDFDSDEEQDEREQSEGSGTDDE

## NCC#Cc1cc(N2C3CCC2CN(c2cc(-c4ccccc4O)nnc2N)C3)ccn1 [Compound 24, 2-(6-amino-5-(8-(2-(3-aminoprop-1-yn-1-yl)pyridin-4-yl)-3,8-diazabicyclo[3.2.1]octan-3-yl)pyridazin-3-yl)phenol]
BRM [1]
  Median HiBiT activity 1 μM: −27.1137%
  Median HiBiT activity 10 μM: −43.5174%
BRG1
  DC50: > 100 nM
BRM [2]
  DC50: 10 to 100 nM
  BRM IF Degradation Sinf (%): E (E indicates −30%-−70%)

## Nc1nnc(-c2ccccc2O)cc1N1CC2CCC(C1)N2c1ccnc(C#CC2CCNC2)c1 (centres unmarked) [Compound 25, 2-(6-amino-5-(8-(2-(pyrrolidin-3-ylethynyl)pyridin-4-yl)-3,8-diazabicyclo[3.2.1]octan-3-yl)pyridazin-3-yl)phenol]
BRM [1]
  Median HiBiT activity 1 μM: −26.7344%
  Median HiBiT activity 10 μM: −55.1975%
BRG1
  DC50: > 100 nM
BRM [2]
  DC50: > 100 nM
  BRM IF Degradation Sinf (%): E (E indicates −30%-−70%)

## Nc1nnc(-c2ccccc2O)cc1N1CC2CCC(C1)N2c1ccnc(C#CCCO)c1 [Compound 26, 2-(6-amino-5-(8-(2-(4-hydroxybut-1-yn-1-yl)pyridin-4-yl)-3,8-diazabicyclo[3.2.1]octan-3-yl)pyridazin-3-yl)phenol]
BRM [1]
  Median HiBiT activity 1 μM: −25.9348%
  Median HiBiT activity 10 μM: −28.4202%
BRG1
  DC50: > 100 nM
BRM [2]
  DC50: > 100 nM

## Nc1nnc(-c2ccccc2O)cc1N1CC2CCC(C1)N2c1ccnc(C#CCCCCO)c1 [Compound 27, 2-(6-amino-5-(8-(2-(6-hydroxyhex-1-yn-1-yl)pyridin-4-yl)-3,8-diazabicyclo[3.2.1]octan-3-yl)pyridazin-3-yl)phenol]
BRM [1]
  Median HiBiT activity 1 μM: −23.7734%
  Median HiBiT activity 10 μM: −28.4819%
BRG1
  DC50: > 100 nM
BRM [2]
  DC50: > 100 nM
  BRM IF Degradation Sinf (%): D (D indicates 0-−30%)

## Nc1nnc(-c2ccccc2O)cc1N1CC2CCC(C1)N2c1ccnc(C#CCN2CCNCC2)c1 [Compound 28, 2-(6-amino-5-(8-(2-(3-(piperazin-1-yl)prop-1-yn-1-yl)pyridin-4-yl)-3,8-diazabicyclo[3.2.1]octan-3-yl)pyridazin-3-yl)phenol]
BRM [1]
  Median HiBiT activity 1 μM: −23.3156%
  Median HiBiT activity 10 μM: −44.9026%
BRG1
  DC50: > 100 nM
BRM [2]
  DC50: > 100 nM
  BRM IF Degradation Sinf (%): E (E indicates −30%-−70%)

## Nc1nnc(-c2ccccc2O)cc1N1CC2CCC(C1)N2c1ccnc(C#C[C@H]2CC[C@H](N)CC2)c1 [Compound 29, 2-(6-amino-5-(8-(2-(((1r,4r)-4-aminocyclohexyl)ethynyl)pyridin-4-yl)-3,8-diazabicyclo[3.2.1]octan-3-yl)pyridazin-3-yl)phenol]
BRM [1]
  Median HiBiT activity 1 μM: −22.4859%
  Median HiBiT activity 10 μM: −33.4085%
BRG1
  DC50: > 100 nM
BRM [2]
  DC50: > 100 nM

## NCCC#Cc1cc(N2C3CCC2CN(c2cc(-c4ccccc4O)nnc2N)C3)ccn1 [Compound 30, 2-(6-amino-5-(8-(2-(4-aminobut-1-yn-1-yl)pyridin-4-yl)-3,8-diazabicyclo[3.2.1]octan-3-yl)pyridazin-3-yl)phenol]
BRM [1]
  Median HiBiT activity 1 μM: −18.8155%
  Median HiBiT activity 10 μM: −47.5549%
BRG1
  DC50: > 100 nM
  Dmax: 0 to 30%
BRM [2]
  DC50: > 100 nM
  BRM IF Degradation Sinf (%): E (E indicates −30%-−70%)

## Nc1nnc(-c2ccccc2O)cc1N1CC2CCC(C1)N2c1ccnc(C#CCN2CCCC(N)C2)c1 (centres unmarked) [Compound 31, 2-(6-amino-5-(8-(2-(3-(3-aminopiperidin-1-yl)prop-1-yn-1-yl)pyridin-4-yl)-3,8-diazabicyclo[3.2.1]octan-3-yl)pyridazin-3-yl)phenol]
BRM [1]
  Median HiBiT activity 1 μM: −16.7799%
  Median HiBiT activity 10 μM: −47.9900%
BRG1
  DC50: > 100 nM
BRM [2]
  DC50: > 100 nM

## NCC(=O)NCCCc1cc(N2C3CCC2CN(c2cc(-c4ccccc4O)nnc2N)C3)ccn1 [Compound 32, 2-amino-N-(3-(4-(3-(3-amino-6-(2-hydroxyphenyl)pyridazin-4-yl)-3,8-diazabicyclo[3.2.1]octan-8-yl)pyridin-2-yl)propyl)acetamide]
BRM [1]
  Median HiBiT activity 1 μM: −16.4623%
  Median HiBiT activity 10 μM: −30.3732%
BRG1
  DC50: 10 to 100 nM
  Dmax: 0 to 30%
BRM [2]
  DC50: 10 to 100 nM
  BRM IF Degradation Sinf (%): E (E indicates −30%-−70%)

## NCCCc1cc(N2C3CCC2CN(c2cc(-c4ccccc4O)nnc2N)C3)ccn1 [Compound 33, 2-(6-amino-5-(8-(2-(3-aminopropyl)pyridin-4-yl)-3,8-diazabicyclo[3.2.1]octan-3-yl)pyridazin-3-yl)phenol]
BRM [1]
  Median HiBiT activity 1 μM: −14.8996%
  Median HiBiT activity 10 μM: −55.0132%
BRG1
  DC50: > 100 nM
  Dmax: 30 to 70%
BRM [2]
  DC50: > 100 nM
  BRM IF Degradation Sinf (%): E (E indicates −30%-−70%)
